{"source": "patent US20200289495A1", "about": "“METHODS OF INHIBITING ENDOTHELIN B RECEPTOR EXPRESSING TUMOR METASTASES” (ENB Therapeutics, Inc., priority 2020, published 2020)", "key": {"[1]": {"tested_on": "melanoma cell lines overexpressing ETBR", "assay": "Mouse melanoma brain metastasis model (xenografts of ETBR-overexpressing melanoma cell lines)", "assay_type": "in vivo, mice", "conditions": "60 mg/kg/day", "description": "FIGS. 5A, 5B, 5C, 5D, and 5E. ETBR antagonist inhibits melanoma brain metastasis in mice. […] In this study, lentiviral vectors were used to overexpress ETBR in melanoma cell lines, which were in turn used to implant xenografts in mice.\nA192621 inhibits melanoma brain metastasis in mice (FIGS. 5A, 5B, 5C, 5D, and 5E). […] A192621 was administered at a dose of 60 mg/kg/day using a mouse melanoma model. […] In this study, lentiviral vectors were used to overexpress ETBR in melanoma cell lines, which were in turn used to implant xenografts in mice. […]"}, "[2]": {"tested_on": "SKMEL28 human melanoma cells", "assay": "SKMEL28 human melanoma xenograft growth and lung metastasis in mice", "assay_type": "in vivo", "description": "FIGS. 4A and 4B. BQ788 inhibits melanoma growth and metastasis.\nB0788 inhibits melanoma growth and metastasis (FIGS. 4A and 4B). […] Mice were implanted with 1×10^6 SKMEL28 human melanoma cells. Tumors were established for 10 days until palpable then 120 ng ([…]) BQ788 dissolved in DMSO was injected IP 3×per week×6 weeks. Mice were then sacrificed and lungs harvested and tumors weighed. A 75% reduction in tumor weight was observed."}, "[3]": {"assay": "Body weight of athymic nude mice under intranasal BQ788", "assay_type": "in vivo", "description": "FIG. 9. ETAR antagonist and Niacinamide mitigate weight loss from BQ788. Six week old athymic nude mice were administered the ETBR antagonist BQ788 intranasally in 20% DMSO at the indicated ascending doses over a period of 42 days. One group was additionally administered the ETAR antagonist Macitentan orally at a dose of 5 mg/kg daily. The drinking water of these mice was supplemented with the B vitamin niacinamide at a concentration of 0.3 mg/mL. […] Co-administration of the ETAR antagonist Macitentan with niacinamide supplementation mitigated this weight loss. […] Co-administration of ETAR antagonists and niacinamide with ETBR antagonists mitigated the adverse effects of ETBR antagonists when administered for therapeutic purposes.\nETAR antagonist and Niacinamide mitigate weight loss from B0788 (FIG. 9). Six week old athymic nude mice (n=3 per group) were administered the ETBR antagonist BQ788 intranasally in 20% DMSO at the indicated ascending doses over a period of 42 days. One group was additionally administered the ETAR antagonist Macitentan orally at a dose of 5 mg/kg daily. The drinking water of these mice was supplemented with the B vitamin niacinamide at a concentration of 0.3 mg/mL. […] Co-administration of the ETAR antagonist Macitentan with niacinamide supplementation mitigated this weight loss. […]"}, "[4]": {"tested_on": "A375 human melanoma cells", "assay": "A375 subcutaneous melanoma xenograft in Nu/J nude mice", "assay_type": "in vivo", "conditions": "Dabrafenib 100 mg/Kg PO daily, alone or + BQ788 600 ng IP TIW; day 11, p<0.05", "description": "FIG. 7. BQ788 synergizes with Dabrafenib in vivo. A375 human melanoma cells were implanted subcutaneously into the rear flank of Nu/J nude mice and allowed to grow to 150 mm3-200 mm3 prior to randomization and initiation of treatment. The mice received the following treatments: (1) vehicle (n=8), (2) Dabrafenib 100 mg/Kg PO daily (n=5), and (3) Dabrafenib+BQ788 600 ng IP TIW (n=5).\nB0788 synergizes with a bRAF inhibitor in vivo (FIG. 7). A375 human melanoma cells (3×10^6) were implanted subcutaneously into the rear flank of Nu/J nude mice and allowed to grow to 150 mm3-200 mm3 prior to randomization and initiation of treatment. The treatment groups were as follows: (1) vehicle (n=8), Dabrafenib 100 mg/Kg PO daily (n=5), (2) Dabrafenib+BQ788 600 ng IP 3×per week (n=5)."}}, "note": "Entries after “also recorded” stand apart in the source; their conditions may differ."}
{"smiles": "CCCOc1ccc([C@H]2[C@H](C(=O)O)[C@@H](c3ccc4c(c3)OCO4)CN2CC(=O)Nc2c(CC)cccc2CC)cc1", "note": "[A192621, (2R,3R,4S)-4-(1,3-benzodioxol-5-yl)-1-[2-(2,6-diethylanilino)-2-oxoethyl]-2-(4-propoxyphenyl)pyrrolidine-3-carboxylic acid]", "values": [{"measurement": "CNS melanoma tumors", "setting": "[1]", "result": "shrinks CNS melanoma tumors"}, {"measurement": "brain melanoma metastases", "setting": "[1]", "result": "shrinks brain melanoma metastases"}, {"measurement": "survival", "setting": "[1]", "result": "increases survival"}]}
{"smiles": "CCCC[C@@H](NC(=O)[C@@H](Cc1cn(C(=O)OC)c2ccccc12)NC(=O)[C@H](CC(C)(C)C)NC(=O)N1[C@H](C)CCC[C@@H]1C)C(=O)O", "note": "[BQ788]", "values": [{"measurement": "clearance of lung metastases", "setting": "[2]; 120 ng (˜60 ug/kg) BQ788 in DMSO IP 3× per week × 6 weeks, lungs vs control mice", "result": "> 95", "unit": "%"}, {"measurement": "apoptosis in melanoma tumor cells", "setting": "[2]; FIGS. 4A and 4B", "result": "induces apoptosis"}, {"measurement": "average weight loss relative to baseline body weight", "setting": "[3]; BQ788 intranasally in 20% DMSO, ascending doses over 42 days, end of study", "result": 5, "unit": "%"}, {"measurement": "body weight / thriving", "setting": "[3]; BQ788 intranasally over 42 days, alone or with Macitentan 5 mg/kg daily orally and niacinamide 0.3 mg/mL in drinking water", "result": "failed to thrive"}]}
{"smiles": "CC(C)(C)c1nc(-c2cccc(NS(=O)(=O)c3c(F)cccc3F)c2F)c(-c2ccnc(N)n2)s1", "note": "[Dabrafenib]", "values": [{"measurement": "tumor growth", "setting": "[4]", "result": "retarded the growth of tumors; also recorded: retarded tumor growth"}]}
